{
  "source": "patent US20230233695A1",
  "about": "“MITHRAMYCIN A NANOPARTICLES FOR CANCER TREATMENT” (priority 2021, published 2023)",
  "key": {"[1]": {"tested_on": "TC-71 (EWS:Fli1+) xenograft tumor", "conditions": "1 mg/kg, five i.v. injections on alternating days", "description": "In vivo anti-tumor efficacy. […] On alternating days following inoculation, body weight was recorded, and tumor volume was measured using digital calipers. As each mouse achieved a measurable tumor volume of 200 mm^3, they were randomly allocated saline control vehicle, blank polymer (nano-formulation without MithA conjugation), 1 mg/kg MithA, or 1 mg/kg MANP (1 mg/kg eq. MithA) treatment groups until n=10/group was reached. Mice received 5 intravenous injections of the designated treatment via tail vein, given on alternating day schedule (e.g. M-W-F-Su-Tu). After treatment, tumors were allowed to grow to 1.5 cm^3, at which point the mice were euthanized by CO2 inhalation (FIG. 4.1.). The tumor volume was calculated by the equation: Tumor volume=(L×W^2)/2, in which L and W are the longest and shortest in tumor diameters (mm), respectively. Survival duration was calculated as the number of days for tumor volume to increase from 200 to 1500 mm^3.\nStatistical analysis. Microsoft Excel was used to organize data and obtain descriptive statistics (mean and standard deviation). […] For Western blot, tumor-bearing xenograft, and toxicity studies, one-way ANOVA with Bonferroni correction and multiple comparisons were performed using Prism 9. […] For xenograft studies, survival data were used to construct Kaplan-Meier plots and statistical significance of differences between treatment groups (n=10-11/group) was determined by the log-rank test. Differences were accepted as statistically significant when the p-value was ≤0.05."}, "Female C57BL/6J mice [2]": {"tested_on": "Female C57BL/6J mice", "experiment": "In vivo toxicity: serum chemistry", "procedure": "(§1) In vivo toxicity of MithA and MANP. Cohorts of n=6-7 C57BL/6J females, 8-10 wko were randomized to receive either intravenous or intraperitoneal administration of saline control vehicle, blank polymer, MithA, or MANP as described in TABLES 2A and 2B. Body weight loss exceeding 20%, death, morbidity, changes in behavior, and any other sign of local or systemic toxicity were recorded.\nFor serum chemistry blood was collected through a 20G needle 24 h after the last dose, by cardiac puncture under isoflurane anesthesia. The blood was distributed to EDTA-coated (100 uL) or clot-activator (>200 uL) Multivette-600 tubes (Sarstedt, Newton, N.C.) respectively for hematology and serum chemistry analyses. For serum isolation, blood allowed to clot at room temperature for at least 20 minutes, centrifuged 10 kG for 10 minutes, aliquoted and frozen at −80° C. until analysis on a VetScan VS2 instrument (Zoetis, Parsippany-Troy Hills, N.J.) with Zoetis Preventive Profile Plus panel for chemistry."}, "EWS:Fli1+ cells [3]": {"tested_on": "EWS:Fli1+ cells", "conditions": "previous study; read-out: average IC50 in EWS:Fli1 cell lines, previous study; cited from earlier work"}, "A673": {"tested_on": "A673", "experiment": "XTT cell viability assay, A673", "assay_type": "cell-based", "conditions": "Homo sapiens, A673, 72 h, read-out: Viability IC50", "procedure": "(§2) Cell viability assays. For viability assays, four EWS:Fli1 fusion tumor cell lines (RD-ES, SK-ES-1, A673, and TC-71), one human embryonic kidney cell line (293.T), one ES tumor cell line with ERG fusion (CHLA-25), one fetal kidney cell line (HEK293.T), one hepatoblastoma cell line (HepG2), one chronic myeloid leukemia (MEG-01), and one acute monocytic leukemia (THP-1) cell line were plated at 5000 cells/well in 100 μL growth media in 96-well plates. After overnight incubation, 50 μL of growth media containing mithramycin A (MithA) (Cayman Chemical, Ann Arbor, Mi. Item Number 11434) or boronic acid-conjugated nano-MithA (MANP) (0.12 nM to 500 nM, final) or dimethyl sulfoxide (DMSO, 0.01% v/v) vehicle was added to the wells, and cell viability assays were performed 72 hours later. The cells were incubated with the activated-XTT solution (mixture of 2% final concentration of activation reagent with the XTT reagent) from ATCC (Catalog Number 30-1011K, XTT Cell Proliferation Assay Kit) for 3 hours prior to recording absorbance. The cell viability was determined by measuring the absorbance wavelength at 475 nm and reference wavelength at 650 nm on an Infinite M200 plate reader (Tecan Group, Ltd. Mannedorf, Switzerland). […]"}, "THP-1": {"tested_on": "THP-1", "experiment": "XTT cell viability assay, THP-1", "assay_type": "cell-based", "conditions": "Homo sapiens, THP-1, 72 h, read-out: Viability IC50", "procedure": "as §2"}, "Rad51": {"tested_on": "Rad51", "experiment": "Western blotting, Rad51 protein expression", "assay_type": "cell-based", "conditions": "10 nM, 24 hours", "procedure": "Western Blotting. Expression Western blotting was performed to assess the expression of NR0B1 (EWS:Fli1 target gene) and Rad 51 (DNA homologous recombination repair HRR) at protein level as provisory described in Lin et al 2021. Briefly, cells were grown to ˜70% confluence and exposed to 10 nM of MithA/MANP (final concentration) or DMSO, (0.01% v/v) vehicle and blank polymer for 24 hours. Lysates were collected in cold RIPA lysis buffer supplemented with 1×HALT protease/phosphatase inhibitor cocktail (Thermo Scientific) and clarified by centrifugation. Protein concentration of the supernatant was determined by BCA assay (Thermo Scientific), and then diluted in 4× loading buffer (Licor Inc., Lincoln, Nebr.) containing 1× NuPAGE reducing agent (Life Technologies). Prior to electrophoresis, samples were denatured by incubating at 70° C. for 10 minutes. Samples were then resolved (25 μg/lane) on 4-20% gradient SDS-PAGE gels and transferred to low-fluorescence PVDF membranes (Bio-Rad Inc., Hercules Calif.). Transfer efficiency and equivalence of total protein load was assessed using Revert 700 Total Protein Stain kits (Licor Inc). Membranes were then washed, blocked in Odyssey Blocking Buffer (PBS) (Licor Inc), and incubated with primary antibodies (Table S4.3 above) overnight at 4° C. diluted in blocking buffer."}, "EWS:Fli1+ cells [4]": {"tested_on": "EWS:Fli1+ cells", "experiment": "XTT cell viability assay, average over EWS:Fli1+ cell lines", "assay_type": "cell-based", "conditions": "read-out: average IC50 against EWS:Fli1+ cells", "procedure": "as §2"}, "RD-ES": {"tested_on": "RD-ES", "experiment": "XTT cell viability assay, RD-ES", "assay_type": "cell-based", "conditions": "72 h, read-out: Viability IC50", "procedure": "as §2"}, "Female C57BL/6J mice [5]": {"tested_on": "Female C57BL/6J mice", "experiment": "In vivo toxicity of MithA and MANP: body weight, death, morbidity", "procedure": "as §1"}, "[6]": {"conditions": "5x2 mg/kg i.v., compared to saline vehicle"}, "[7]": {"conditions": "5x4 mg/kg i.p., relative to saline vehicle"}, "[8]": {"conditions": "single i.v. 4 mg/kg, within 48 hours"}},
  "note": "Read-outs that look alike come from different tables or passages of the source.",
  "data": [
    {"smiles": "CO[C@H](C(=O)[C@@H](O)[C@@H](C)O)[C@@H]1Cc2cc3cc(O[C@H]4C[C@@H](O[C@H]5C[C@@H](O)[C@H](O)[C@@H](C)O5)[C@H](O)[C@@H](C)O4)c(C)c(O)c3c(O)c2C(=O)[C@H]1O[C@H]1C[C@@H](O[C@H]2C[C@@H](O[C@H]3C[C@](C)(O)[C@H](O)[C@@H](C)O3)[C@@H](O)[C@@H](C)O2)[C@H](O)[C@@H](C)O1", "note": "[MithA, (2S,3S)-2-[(2S,4R,5R,6R)-4-[(2S,4R,5S,6R)-4-[(2S,4S,5R,6R)-4,5-dihydroxy-4,6-dimethyloxan-2-yl]oxy-5-hydroxy-6-methyloxan-2-yl]oxy-5-hydroxy-6-methyloxan-2-yl]oxy-3-[(1 S,3S,4R)-3,4-dihydroxy-1-methoxy-2-oxopentyl]-6-[(2S,4R,5R,6R)-4-[(2S,4R,5S,6R)-4,5-dihydroxy-6-methyloxan-2-yl]oxy-5-hydroxy-6-methyloxan-2-yl]oxy-8,9-dihydroxy-7-methyl-3,4-dihydro-2H-anthracen-1-one]", "values": [
      {"measurement": "body weight in tumor-bearing mice", "setting": "[1]", "value": "no loss of body weight was observed"},
      {"measurement": "survival, range", "setting": "[1]", "value": "12 to 35", "unit": "days"},
      {"measurement": "median survival", "setting": "[1]; days for tumor to grow from 200 to 1500 mm^3", "value": 20, "unit": "days"},
      {"measurement": "glucose level", "setting": "Female C57BL/6J mice [2]; 5 consecutive days i.p. 1 mg/kg, vs saline (p=0.005)", "value": "decreased"},
      {"measurement": "liver toxicity", "setting": "Female C57BL/6J mice [2]; 5x2 mg/kg (eq.) i.v. alternating days", "value": "led to hepatoxicity"},
      {"measurement": "decrease in glucose serum level", "setting": "Female C57BL/6J mice [2]; [6]", "value": 1.9, "unit": "fold"},
      {"measurement": "increase in ALT", "setting": "Female C57BL/6J mice [2]; [6]", "value": 20.9, "unit": "fold"},
      {"measurement": "increase in AST", "setting": "Female C57BL/6J mice [2]; [6]", "value": 4.1, "unit": "fold"},
      {"measurement": "increase in total bilirubin", "setting": "Female C57BL/6J mice [2]; [6]", "value": 1.5, "unit": "fold"},
      {"measurement": "decrease in glucose level", "setting": "Female C57BL/6J mice [2]; [7]", "value": 1.9, "unit": "fold"},
      {"measurement": "increase of alanine transaminase (ALT)", "setting": "Female C57BL/6J mice [2]; [7]", "value": 16.9, "unit": "fold"},
      {"measurement": "increase of aspartate aminotransferase (AST)", "setting": "Female C57BL/6J mice [2]; [7]", "value": 5.4, "unit": "fold"},
      {"measurement": "kidney injury or electrolyte imbalance", "setting": "Female C57BL/6J mice [2]; five i.v. injections on alternating days, any treatment group", "value": "no evidence of kidney injury or electrolyte imbalance"},
      {"measurement": "changes in serum chemistry", "setting": "Female C57BL/6J mice [2]; single i.p. 4 mg/kg", "value": "no significant changes"},
      {"measurement": "increase in ALT liver enzyme level", "setting": "Female C57BL/6J mice [2]; single i.v. 4 mg/kg, in comparison to equivalent dose of MANP (p=0.0381)", "value": 1.7, "unit": "fold"},
      {"measurement": "IC50", "setting": "EWS:Fli1+ cells [3]", "value": 12, "unit": "nM"},
      {"measurement": "IC50", "setting": "A673", "value": 12.4, "unit": "nM"},
      {"measurement": "IC50", "setting": "THP-1", "value": 234, "unit": "nM"},
      {"measurement": "Rad51 protein expression", "setting": "Rad51", "value": "Down-regulated"},
      {"measurement": "IC50", "setting": "EWS:Fli1+ cells [4]", "value": 10, "unit": "nM"},
      {"measurement": "IC50", "setting": "RD-ES", "value": 6.2, "unit": "nM"},
      {"measurement": "toxicity by serum chemistry or hematology studies", "setting": "Female C57BL/6J mice [5]; 5 consecutive days i.p. 1 mg/kg", "value": "no significant toxicity"},
      {"measurement": "death", "setting": "Female C57BL/6J mice [5]; 5 consecutive days i.p. 4 mg/kg", "value": "One mouse died"},
      {"measurement": "body weight", "setting": "Female C57BL/6J mice [5]; 5 consecutive days i.p. 4 mg/kg (p=0.0016)", "value": "progressive and significant body weight loss"},
      {"measurement": "morbidity", "setting": "Female C57BL/6J mice [5]; 5 consecutive days i.p. 4 mg/kg, day of harvest (day 6)", "value": "one mouse found to be moribund"},
      {"measurement": "outward signs of morbidity or toxicity", "setting": "Female C57BL/6J mice [5]; five i.v. injections on alternating days, 1 mg/kg or 2 mg/kg", "value": "no obvious outward signs of morbidity or toxicity"},
      {"measurement": "body weight", "setting": "Female C57BL/6J mice [5]; single i.p. injection, 1 mg/kg and 4 mg/kg, vs saline vehicle", "value": "no significant weight loss"},
      {"measurement": "toxicity by serum chemistry or hematology assays", "setting": "Female C57BL/6J mice [5]; single i.p. injection, 1 or 2 mg/kg", "value": "did not cause any toxicity"},
      {"measurement": "body weight", "setting": "Female C57BL/6J mice [5]; single i.v. 4 mg/kg, in comparison to equivalent dose of MANP (p=0.048)", "value": "significant decrease"},
      {"measurement": "death rate", "setting": "Female C57BL/6J mice [5]; [8]", "value": 75, "unit": "%"},
      {"measurement": "mice that died", "setting": "Female C57BL/6J mice [5]; [8]", "value": "6/8"}
    ]}
  ]
}
